The values that follow come from patent publication US20040058947A1, “Composition for the prevention or treatment of learning disorders in children suffering from attention deficit/hyperactive disorder” (priority 2001, published 2004).

Experiment [1] concerns glutamate-induced spontaneous motility in mice. Put plainly: Glutamate excitability tests (hypermotility after intracerebral glutamate). The settings on record: treatment one hour prior, huperzine A 0.05 mg/kg, L-carnitine 200 mg/kg + acetyl L-carnitine 50 mg/kg. Type of experiment: in vivo. From the text: Excitatory amino acids such as glutamate, if administered by intracerebral injection, produce a series of behavioural effects, the most evident of which is hypermotility.
To evaluate the effect of huperzine A and L-carnitine/acetyl L-carnitine and of a combination of these, mice received intracerebral injections of increasing doses of glutamate according to the method described by Lama (Lama E., Acta Pharmacol. Sinica, 9:252, 1988). The increase in spontaneous motility of these animals placed in a box with transparent walls was then evaluated by means of a photoelectric cell which recorded the number of passes for a period of five minutes. The motility test was conduced both in control animals and in animals treated one hour prior to injection of glutamate with huperzine A and with L-carnitine/acetyl L- carnitine and with a combination of these compounds. The results of these tests (see Table 2) indicate that treatment with huperzine A reduces the increase in motility induced by glutamate in mice, but that the greastest reduction is that obtained by administration of the combination of huperzine A and L-carnitine/acetyl L-carnitine.

Experiment [2] concerns cortical neurons isolated from mouse foetuses. Put plainly: Effect on glutamate-induced cortical neuronal toxicity. Type of experiment: cell-based. To be noted: monosodium glutamate 1 nmol·L^−1; L-carnitine/acetyl L-carnitine 5 nmol·L^−1, huperzine A 10 nmol·L^−1, added half an hour before glutamate; glutamate alone 20%. On the procedure: As is known , persistent stimulation of glutamate receptors induces a neurotoxic effect leading to the death of neuronal cells: this is one of the mechanisms regarding as being responsible for the pathogenesis of Alzheimer's disease. The aim of these tests was to observe whether preincubation of cortical neuronal cells with L-carnitine+acetyl L-carnitine carnitine alone or in combination with huperzine A may lead to a reduction of glutamate-induced toxicity and to greater survival of neuronal cells. In these tests, cortical neurons isolated from mouse foetuses were used, according to the method described by Lin [Lin L., J. Nanjing Univ. (Natural Science Edition) 31:514, 1995—Lin L., Acta Pharmacol. Sinica, 17:221, 1996]. After isolating the cells, they were suspended on plates with a density of 6.4×10^8 cells/m^2 surface. To prevent proliferation of non-neuronal cells, […]. […]
The solutions of L-carnitine/acetyl L-carnitine or huperzine A were added to the Locke solution half an hour before monosodium glutamate. […] according to the procedure disclosed by Green (Green L. M., J. Immunol. Methods, 70:257, 1984).

Take `C/C=C1\[C@H]2C=C(C)C[C@]1(N)c1ccc(=O)[nH]c1C2` [huperzine A]: the “N. passes in 5 min observation” value in experiment [1] (Glutamate 1 ng/mouse intracerebral, glutamate control 241 ± 35) was found to be 226 ± 24; in experiment [1] (Glutamate 5 ng/mouse intracerebral, glutamate control 364 ± 39), 296 ± 16. Also, the “survival rate of neuronal cells” value in experiment [2] is recorded as 30%.
